Experiments:
Assay type in all cases: in vivo
[1] = tested on: ragweed (common ragweed, Ambrosia artemisiifolia); experiment: Test A postemergence application, visual injury rating 0-100; conditions: for Ragweed plant response rating (0 to 100 scale): Postemergence
Method in brief: (§1)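 Rating: visual, day 10, untreated plants as reference, 0 no effect to 100 full control. Plants were in loam-sand and were treated either preemergence via directed soil spray or postemergence at the one- to two-leaf stage.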

[2] = tested on: ryegrass, Italian (italian ryegrass, Lolium multiflorum); experiment: as above; conditions: for Ryegrass, Italian plant response rating (0 to 100 scale): Postemergence
Method in brief: as §1

[3] = tested on: wheat (Triticum aestivum); experiment: as above; conditions: for Wheat plant response rating (0 to 100 scale): Postemergence
Method in brief: as §1

[4] = tested on: palmer (palmer amaranth, palmer pigweed, Amaranthus palmeri); experiment: as above
Method in brief: as §1

[5] = tested on: blackgrass (Alopecurus myosuroides); experiment: as above; conditions: for Blackgrass plant response rating (0 to 100 scale): Postemergence
Method in brief: as §1

kochia (Bassia scoparia) [6] = experiment: as above; conditions: for Kochia plant response rating (0 to 100 scale): Postemergence
Method in brief: as §1

[7] = tested on: galium (catchweed bedstraw, Galium aparine); experiment: as above; conditions: for Galium plant response rating (0 to 100 scale): Postemergence
Method in brief: as §1

[8] = tested on: barnyardgrass (Echinochloa crus-galli); experiment: as above; conditions: for Barnyardgrass plant response rating (0 to 100 scale): Postemergence
Method in brief: as §1

corn (Zea mays) [9] = experiment: as above; conditions: for Corn plant response rating (0 to 100 scale): Postemergence
Method in brief: as §1

soybean (Glycine max) [10] = experiment: as above; conditions: for Soybean plant response rating (0 to 100 scale): Postemergence
Method in brief: as §1

[11] = tested on: green foxtail (Setaria viridis); experiment: as above
Method in brief: as §1

[12] = tested on: oat, wild (wild oat, Avena fatua); experiment: as above; conditions: for Oat, Wild plant response rating (0 to 100 scale): Postemergence
Method in brief: as §1

[13] = tested on: ragweed (common ragweed, Ambrosia artemisiifolia); experiment: Test A preemergence soil spray, visual injury rating 0-100; conditions: 10 days
Method in brief: as §1

[14] = tested on: ryegrass, Italian (italian ryegrass, Lolium multiflorum); experiment: as above; conditions: 10 days
Method in brief: as §1

[15] = tested on: wheat (Triticum aestivum); experiment: as above; conditions: 10 days
Method in brief: as §1

[16] = tested on: palmer (palmer amaranth, palmer pigweed, Amaranthus palmeri); experiment: as above; conditions: 10 days
Method in brief: as §1

[17] = tested on: blackgrass (Alopecurus myosuroides); experiment: as above; conditions: 10 days
Method in brief: as §1

kochia (Bassia scoparia) [18] = experiment: as above; conditions: 10 days
Method in brief: as §1

[19] = tested on: barnyardgrass (Echinochloa crus-galli); experiment: as above; conditions: 10 days
Method in brief: as §1

corn (Zea mays) [20] = experiment: as above; conditions: 10 days
Method in brief: as §1

soybean (Glycine max) [21] = experiment: as above; conditions: 10 days
Method in brief: as §1

[22] = tested on: green foxtail (Setaria viridis); experiment: as above; conditions: 10 days
Method in brief: as §1

[23] = tested on: oat, wild (wild oat, Avena fatua); experiment: as above; conditions: 10 days
Method in brief: as §1

rice (Oryza sativa) = experiment: Test B flooded paddy test, visual plant response rating 0-100; conditions: 250 g ai/ha, Flood, applied to paddy water, evaluated after 13 days
Method in brief: (§2)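 Plants were grown to the 2-leaf stage, then pots were flooded to 3 cm above the soil and test compounds were applied directly into the paddy water. Water depth was held there throughout; after 13 days in a greenhouse, injury was scored visually against untreated controls.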

[24] = tested on: ducksalad (Heteranthera limosa); experiment: as above; conditions: 250 g ai/ha, Flood, applied to paddy water, evaluated after 13 days
Method in brief: as §2

[25] = tested on: sedge, umbrella (small-flower umbrella sedge, Cyperus difformis); experiment: as above; conditions: 250 g ai/ha, Flood, applied to paddy water, evaluated after 13 days
Method in brief: as §2

[26] = tested on: barnyardgrass (Echinochloa crusgalli); experiment: as above; conditions: 250 g ai/ha, Flood, applied to paddy water, evaluated after 13 days
Method in brief: as §2

[27] = tested on: horseweed (Erigeron canadensis); experiment: Test A postemergence application, visual injury rating 0-100; conditions: Postemergence
Method in brief: as §1

[28] = 62 g ai/ha, postemergence, 10 days, 0 = no effect, 100 = complete control
[29] = 16 g ai/ha, greenhouse 10 days, 0 no effect, 100 complete control
[30] = Postemergence, 16 g ai/ha, greenhouse 10 days, 0 no effect, 100 complete control
[31] = 62 g ai/ha, 0 = no effect, 100 = complete control
[32] = 31 g ai/ha, greenhouse 10 days, 0 no effect, 100 complete control
[33] = 125 g ai/ha, 10 days, 0 is no effect, 100 is complete control
[34] = 31 g ai/ha, 0 = no effect, 100 = complete control
[35] = 125 g ai/ha, 0 = no effect, 100 = complete control

SMILES: C=CC1(C(=O)NC2COC(C(=O)OC)C2)CN(c2cc(F)cc(F)c2)C(=O)O1 (centres unmarked) [Compound 171]
- Ragweed plant response rating (0-100) [1, 28]: 30
- Ragweed plant response rating (0 to 100 scale) [1, 29]: 30
- Ryegrass, Italian plant response rating (0-100) [2, 28]: 70
- Ryegrass, Italian plant response rating (0 to 100 scale) [2, 29]: 20
- Wheat plant response rating (0-100) [3, 28]: 90
- Wheat plant response rating (0 to 100 scale) [3, 29]: 80
- Pigweed, Palmer plant response rating (0-100) [4, 28]: 80
- Pigweed, Palmer plant response rating (0 to 100 scale) [4, 30]: 60
- Blackgrass plant response rating (0-100) [5, 28]: 70
- Blackgrass plant response rating (0 to 100 scale) [5, 29]: 70
- Kochia plant response rating (0-100) (kochia (Bassia scoparia) [6]; [28]): 80
- Kochia plant response rating (0 to 100 scale) (kochia (Bassia scoparia) [6]; [29]): 60
- Galium plant response rating (0-100) [7, 28]: 80
- Galium plant response rating (0 to 100 scale) [7, 29]: 80
- Barnyardgrass plant response rating (0-100) [8, 28]: 80
- Barnyardgrass plant response rating (0 to 100 scale) [8, 29]: 70
- Corn plant response rating (0-100) (corn (Zea mays) [9]; [28]): 90
- Corn plant response rating (0 to 100 scale) (corn (Zea mays) [9]; [29]): 80
- Soybean plant response rating (0-100) (soybean (Glycine max) [10]; [28]): 80
- Soybean plant response rating (0 to 100 scale) (soybean (Glycine max) [10]; [29]): 70
- Foxtail, Green plant response rating (0-100) [11, 28]: 90
- Foxtail, Green plant response rating (0 to 100 scale) [11, 30]: 80
- Oat, Wild plant response rating (0-100) [12, 28]: 90
- Oat, Wild plant response rating (0 to 100 scale) [12, 29]: 90
- Ragweed plant response rating ([13]; 16 g ai/ha, 0 to 100 scale): 0
- Ragweed plant response rating (0-100) [13, 31]: 0
- Ryegrass, Italian plant response rating ([14]; 16 g ai/ha, 0 to 100 scale): 20
- Ryegrass, Italian plant response rating (0-100) [14, 31]: 90
- Wheat plant response rating ([15]; 16 g ai/ha, 0 to 100 scale): 60
- Wheat plant response rating (0-100) [15, 31]: 90
- Pigweed, Palmer plant response rating ([16]; 16 g ai/ha, 0 to 100 scale): 0
- Pigweed, Palmer plant response rating (0-100) [16, 31]: 70
- Blackgrass plant response rating ([17]; 16 g ai/ha, 0 to 100 scale): 20
- Blackgrass plant response rating (0-100) [17, 31]: 90
- Kochia plant response rating (kochia (Bassia scoparia) [18]; 16 g ai/ha, 0 to 100 scale): 30
- Kochia plant response rating (0-100) (kochia (Bassia scoparia) [18]; [31]): 40
- Barnyardgrass plant response rating ([19]; 16 g ai/ha, 0 to 100 scale): 0
- Barnyardgrass plant response rating (0-100) [19, 31]: 90
- Corn plant response rating (corn (Zea mays) [20]; 16 g ai/ha, 0 to 100 scale): 0
- Corn plant response rating (0-100) (corn (Zea mays) [20]; [31]): 40
- Soybean plant response rating (soybean (Glycine max) [21]; 16 g ai/ha, 0 to 100 scale): 0
- Soybean plant response rating (0-100) (soybean (Glycine max) [21]; [31]): 20
- Foxtail, Green plant response rating ([22]; 16 g ai/ha, 0 to 100 scale): 0
- Foxtail, Green plant response rating (0-100) [22, 31]: 90
- Oat, Wild plant response rating ([23]; 16 g ai/ha, 0 to 100 scale): 20
- Oat, Wild plant response rating (0-100) [23, 31]: 90
- Plant response rating, Rice (0 to 100 scale, 0 is no effect and 100 is complete control) (rice (Oryza sativa)): 45
- Plant response rating, Ducksalad (0 to 100 scale, 0 is no effect and 100 is complete control) [24]: 50
- Plant response rating, Sedge, Umbrella (0 to 100 scale, 0 is no effect and 100 is complete control) [25]: 45
- Plant response rating, Barnyardgrass (0 to 100 scale, 0 is no effect and 100 is complete control) [26]: 60

SMILES: CC1(C(=O)NC2C=CC(C(=O)ON=Cc3ccccc3)C2)CN(c2cc(F)cc(F)c2)C(=O)O1 (centres unmarked) [Compound 68]
- Ragweed plant response rating (0 to 100 scale) [1, 32]: 0
- Ragweed plant response rating (0 to 100 scale) [1, 33]: 80
- Ryegrass, Italian plant response rating (0 to 100 scale) [2, 32]: 90
- Ryegrass, Italian plant response rating (0 to 100 scale) [2, 33]: 100
- Horseweed plant response rating (0 to 100 scale) [27, 32]: 50
- Horseweed plant response rating (0 to 100 scale) [27, 33]: 90
- Wheat plant response rating (0 to 100 scale) [3, 32]: 80
- Wheat plant response rating (0 to 100 scale) [3, 33]: 90
- Amaranth, Palmer / Pigweed, Palmer plant response rating (0 to 100 scale) ([4]; Postemergence, 31 g ai/ha, greenhouse 10 days, 0 no effect, 100 complete control): 90
- Amaranth, Palmer / Pigweed, Palmer plant response rating (0 to 100 scale) ([4]; Postemergence, 125 g ai/ha, 10 days, 0 is no effect, 100 is complete control): 90
- Blackgrass plant response rating (0 to 100 scale) [5, 32]: 70
- Blackgrass plant response rating (0 to 100 scale) [5, 33]: 90
- Kochia plant response rating (0 to 100 scale) (kochia (Bassia scoparia) [6]; [32]): 80
- Kochia plant response rating (0 to 100 scale) (kochia (Bassia scoparia) [6]; [33]): 90
- Galium plant response rating (0 to 100 scale) [7, 32]: 90
- Galium plant response rating (0 to 100 scale) [7, 33]: 90
- Barnyardgrass plant response rating (0 to 100 scale) [8, 32]: 90
- Barnyardgrass plant response rating (0 to 100 scale) [8, 33]: 90
- Corn plant response rating (0 to 100 scale) (corn (Zea mays) [9]; [32]): 80
- Corn plant response rating (0 to 100 scale) (corn (Zea mays) [9]; [33]): 100
- Soybean plant response rating (0 to 100 scale) (soybean (Glycine max) [10]; [32]): 90
- Soybean plant response rating (0 to 100 scale) (soybean (Glycine max) [10]; [33]): 100
- Oat, Wild plant response rating (0 to 100 scale) [12, 32]: 30
- Oat, Wild plant response rating (0 to 100 scale) [12, 33]: 90
- Ragweed plant response rating (0-100) [13, 34]: 0
- Ragweed plant response rating (0 to 100 scale) [13, 35]: 20
- Ryegrass, Italian plant response rating (0-100) [14, 34]: 70
- Ryegrass, Italian plant response rating (0 to 100 scale) [14, 35]: 80
- Wheat plant response rating (0-100) [15, 34]: 80
- Wheat plant response rating (0 to 100 scale) [15, 35]: 90
- Amaranth, Palmer plant response rating (0-100) [16, 34]: 100
- Amaranth, Palmer plant response rating (0 to 100 scale) [16, 35]: 100
- Blackgrass plant response rating (0-100) [17, 34]: 50
- Blackgrass plant response rating (0 to 100 scale) [17, 35]: 70
- Kochia plant response rating (0-100) (kochia (Bassia scoparia) [18]; [34]): 80
- Kochia plant response rating (0 to 100 scale) (kochia (Bassia scoparia) [18]; [35]): 90
- Barnyardgrass plant response rating (0-100) [19, 34]: 90
- Barnyardgrass plant response rating (0 to 100 scale) [19, 35]: 100
- Corn plant response rating (0-100) (corn (Zea mays) [20]; [34]): 0
- Corn plant response rating (0 to 100 scale) (corn (Zea mays) [20]; [35]): 80
- Soybean plant response rating (0-100) (soybean (Glycine max) [21]; [34]): 0
- Soybean plant response rating (0 to 100 scale) (soybean (Glycine max) [21]; [35]): 70
- Oat, Wild plant response rating (0-100) [23, 34]: 60
- Oat, Wild plant response rating (0 to 100 scale) [23, 35]: 90
- Plant response rating, Rice (0 to 100 scale, 0 is no effect and 100 is complete control) (rice (Oryza sativa)): 40
- Plant response rating, Ducksalad (0 to 100 scale, 0 is no effect and 100 is complete control) [24]: 95
- Plant response rating, Sedge, Umbrella (0 to 100 scale, 0 is no effect and 100 is complete control) [25]: 98
- Plant response rating, Barnyardgrass (0 to 100 scale, 0 is no effect and 100 is complete control) [26]: 85
